Values joined by “and” are separate entries in the source; they are usually repeats but may differ in a detail not shown here. Equal entries are not always repeated. Structures can show the parent of a compound that is named as a salt. Where two headings read alike, the source gives them in different places.
Biological target: T1, Human ATX protein (Homo sapiens, UniProt Q13822)
T1 construct: made in house
Test: ATX biochemical assay (FRET, FS-3 substrate)
Conditions: FS-3 2 μM, ATX 1.0 μg/mL, 30 minutes preincubation, 2 hours reaction at room temperature
In short: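 In-house human ATX (1.0 μg/mL final) was preincubated with compound for 30 min at room temperature in Tris buffer pH 7.4 with 1 mg/mL fatty acid free-BSA. FS-3 substrate (2 μM final) was then hydrolysed for 2 hours at room temperature, protected from light, and read as fluorescence at ex 485/em 538 nm.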

Compound | IC50 (FRET assay, read-out: IC50) | IC50 (IC50, FRET assay) [nM]
CN(C)C12CCC(C(=O)N3CCc4c(C(F)(F)F)nn(Cc5ccc(F)cc5)c4C3)(CC1)CC2 [Example 10-9, (4-(dimethylamino)bicyclo[2.2.2]octan-1-yl)(1-(4-fluorobenzyl)-3-(trifluoromethyl)-4,5-dihydro-1H-pyrazolo[3,4-c]pyridin-6(7H)-yl)methanone trifluoroacetate salt TFA salt] | 250 to 500 nM | 
O=C(C[C@H]1CC[C@@H](C(=O)O)CC1)N1CCc2c(C(F)(F)F)nn(Cc3ccc(F)cc3F)c2C1 [Example 5-34, cis-4-(2-(1-(2,4-Difluorobenzyl)-3-(trifluoromethyl)-4,5-dihydro-1H-pyrazolo[3,4-c]pyridin-6(7H)-yl)-2-oxoethyl)cyclohexanecarboxylic acid] | ≤ 100 nM | 
O=C(C[C@H]1CC[C@@H](C(=O)O)CC1)N1CCc2c(C(F)(F)F)nn(Cc3ccc(F)cc3)c2C1 [Example 7-2, cis-4-(2-(1-(4-fluorobenzyl)-3-(trifluoromethyl)-4,5-dihydro-1H-pyrazolo[3,4-c]pyridin-6(7H)-yl)-2-oxoethyl)cyclohexanecarboxylic acid] | ≤ 100 nM | 
O=C(C[C@H]1CC[C@H](C(=O)O)CC1)N1CCc2c(C(F)(F)F)nn(Cc3cc(F)c(F)cc3F)c2C1 [Example 5-32, trans-4-(2-(1-(2,4,5-Trifluorobenzyl)-3-(trifluoromethyl)-4,5-dihydro-1H-pyrazolo[3,4-c]pyridin-6(7H)-yl)-2-oxoethyl)cyclohexanecarboxylic acid] | ≤ 100 nM | 
O=C(O)CC1CCN(CC(=O)N2CCc3c(C(F)(F)F)nn(Cc4ccc(F)cc4)c3C2)C1 (stereo not drawn) [Example 13-25, 2-(1-(2-(1-(4-Fluorobenzyl)-3-(trifluoromethyl)-4,5-dihydro-1H-pyrazolo[3,4-c]pyridin-6(7H)-yl)-2-oxoethyl)pyrrolidin-3-yl)acetic acid TFA salt] | ≤ 100 nM | 
O=C(O)C1CC2CN(CC(=O)N3CCc4c(C(F)(F)F)nn(Cc5ccc(F)cc5)c4C3)CC2C1 (stereo not drawn) [Example 13-10, 2-(2-(1-(4-Fluorobenzyl)-3-(trifluoromethyl)-4,5-dihydro-1H-pyrazolo[3,4-c]pyridin-6(7H)-yl)-2-oxoethyl)octahydrocyclopenta[c]pyrrole-5-carboxylic acid TFA salt] | ≤ 100 nM | 
O=C(C[C@H]1CC[C@H](C(=O)O)CC1)N1CCc2cnn(Cc3ccc(Cl)cc3F)c2C1 [Example 7-3, trans-4-(2-(1-(4-Chloro-2-fluorobenzyl)-4,5-dihydro-1H-pyrazolo[3,4-c]pyridin-6(7H)-yl)-2-oxoethyl)cyclohexanecarboxylic acid] | ≤ 100 nM | 
O=C(O)[C@H]1C2C3C[C@@H]1C(CC(=O)N1CCc4c(C(F)(F)F)nn(Cc5ccc(Cl)cc5F)c4C1)C32 (stereo partly drawn) [Example 6-16, (3R,4R)-5-(2-(1-(4-Chloro-2-fluorobenzyl)-3-(trifluoromethyl)-4,5-dihydro-1H-pyrazolo[3,4-c]pyridin-6(7H)-yl)-2-oxoethyl)tricyclo[2.2.1.02,6]heptane-3-carboxylic acid] | ≤ 100 nM | 
CCOC(=O)[C@H]1CC[C@H](CC(=O)N2CCc3c(C(F)(F)F)nn(Cc4ccc(OC)cc4)c3C2)CC1 [Example 1-26, trans-Ethyl 4-(2-(1-(4-methoxylbenzyl)-3-(trifluoromethyl)-4,5-dihydro-1H-pyrazolo[3,4-c]pyridin-6(7H)-yl)-2-oxoethyl)cyclohexanecarboxylate] | ≤ 100 nM | 
O=C(O)[C@H]1C2C3C[C@@H]1C(CC(=O)N1CCc4c(C(F)(F)F)nn(Cc5ccc(F)cc5)c4C1)C32 (stereo partly drawn) [Example 6-17, (3R,4R)-5-(2-(1-(4-Fluorobenzyl)-3-(trifluoromethyl)-4,5-dihydro-1H-pyrazolo[3,4-c]pyridin-6(7H)-yl)-2-oxoethyl)tricyclo[2.2.1.02,6]heptane-3-carboxylic acid] | ≤ 100 nM | 
COC(=O)C1CC2CCC(C1)C2CC(=O)N1CCc2c(C(F)(F)F)nn(Cc3ccc(Cl)cc3F)c2C1 (stereo not drawn) [Example 1-27, Methyl 8-(2-(1-(4-chloro-2-fluorobenzyl)-3-(trifluoromethyl)-4,5-dihydro-1H-pyrazolo[3,4-c]pyridin-6(7H)-yl)-2-oxoethyl)bicyclo[3.2.1]octane-3-carboxylate] | ≤ 100 nM | 
CC(C)(C)OC(=O)N1C2CCC1CC(CC(=O)N1CCc3c(C(F)(F)F)nn(Cc4ccc(Cl)cc4F)c3C1)C2 (stereo not drawn) [Example 8-1, tert-Butyl 3-(2-(1-(4-chloro-2-fluorobenzyl)-3-(trifluoromethyl)-4,5-dihydro-1H-pyrazolo[3,4-c]pyridin-6(7H)-yl)-2-oxoethyl)-8-azabicyclo[3.2.1]octane-8-carboxylate] |  | ≤ 100
N#C[C@H]1CC[C@H](CC(=O)N2CCc3c(C(F)(F)F)nn(Cc4ccc(F)cc4)c3C2)CC1 [Example 21-2, trans-4-(2-(1-(4-Fluorobenzyl)-3-(trifluoromethyl)-4,5-dihydro-1H-pyrazolo[3,4-c]pyridin-6(7H)-yl)-2-oxoethyl)cyclohexanecarbonitrile] | ≤ 100 nM | 
O=C(C[C@H]1CC[C@H](C(=O)O)CC1)N1CCc2c(C(F)(F)F)nn(Cc3ccccn3)c2C1 [Example 5-23, trans-4-(2-Oxo-2-(1-(pyridin-2-ylmethyl)-3-(trifluoromethyl)-4,5-dihydro-1H-pyrazolo[3,4-c]pyridin-6(7H)-yl)ethyl)cyclohexanecarboxylic acid] | 100 to 250 nM | 
O=C(CC1CCNC1)N1CCc2c(C(F)(F)F)nn(Cc3ccc(F)cc3)c2C1 (stereo not drawn) [Example 9-23, 1-(1-(4-Fluorobenzyl)-3-(trifluoromethyl)-4,5-dihydro-1H-pyrazolo[3,4-c]pyridin-6(7H)-yl)-2-(pyrrolidin-3-yl)ethanone hydrochloride] | ≤ 100 nM | 
N[C@H]1CC[C@@H](CC(=O)N2CCc3c(C(F)(F)F)nn(Cc4ccc(F)cc4)c3C2)CC1 [Example 9-18, 2-(cis-4-Aminocyclohexyl)-1-(1-(4-fluorobenzyl)-3-(trifluoromethyl)-4,5-dihydro-1H-pyrazolo[3,4-c]pyridin-6(7H)-yl)ethanone TFA salt] | ≤ 100 nM | 
O=C(CC1CCOCC1)N1CCc2c(C(F)(F)F)nn(Cc3ccc(Cl)cc3F)c2C1 [Example 1-29, 1-(1-(4-Chloro-2-fluorobenzyl)-3-(trifluoromethyl)-4,5-dihydro-1H-pyrazolo[3,4-c]pyridin-6(7H)-yl)-2-(tetrahydro-2H-pyran-4-yl)ethanone] | ≤ 100 nM | 
CCC1CC(CC(=O)N2CCc3c(C(F)(F)F)nn(Cc4ccc(F)cc4)c3C2)CCN1C (stereo not drawn) [Example 10-7, 2-(2-Ethyl-1-methylpiperidin-4-yl)-1-(1-(4-fluorobenzyl)-3-(trifluoromethyl)-4,5-dihydro-1H-pyrazolo[3,4-c]pyridin-6(7H)-yl)ethanone TFA salt] | ≤ 100 nM | 
CCOC(=O)[C@H]1CC[C@H](CC(=O)N2CCc3c(C(F)(F)F)nn(Cc4cc(F)cc(Cl)c4)c3C2)CC1 [Example 2-3, trans-Ethyl 4-(2-(1-(3-chloro-5-fluorobenzyl)-3-(trifluoromethyl)-4,5-dihydro-1H-pyrazolo[3,4-c]pyridin-6(7H)-yl)-2-oxoethyl)cyclohexanecarboxylate] | ≤ 100 nM | 
CC(C)(C)OC(=O)N1CC(CC(=O)N2CCc3c(C(F)(F)F)nn(Cc4ccc(Cl)cc4F)c3C2)C[C@H]1C(=O)O (stereo partly drawn) [Example 5-18, (2S)-1-(tert-Butoxycarbonyl)-4-(2-(1-(4-chloro-2-fluorobenzyl)-3-(trifluoromethyl)-4,5-dihydro-1H-pyrazolo[3,4-c]pyridin-6(7H)-yl)-2-oxoethyl)pyrrolidine-2-carboxylic acid] | ≤ 100 nM | 
O=C(CCc1nnn[nH]1)N1CCc2c(C(F)(F)F)nn(Cc3ccc(Cl)cc3F)c2C1 [Example 1-31, 1-(1-(4-Chloro-2-fluorobenzyl)-3-(trifluoromethyl)-4,5-dihydro-1H-pyrazolo[3,4-c]pyridin-6(7H)-yl)-3-(1H-tetrazol-5-yl)propan-1-one] | ≤ 100 nM | 
O=C(C[C@H]1CC[C@H](C(=O)O)CC1)N1CCc2c(C(F)F)nn(Cc3ccc(F)cc3)c2C1 [Example 5-44, trans-4-(2-(3-(Difluoromethyl)-1-(4-fluorobenzyl)-4,5-dihydro-1H-pyrazolo[3,4-c]pyridin-6(7H)-yl)-2-oxoethyl)cyclohexanecarboxylic acid] | ≤ 100 nM | 
O=C(C[C@H]1CC[C@H](C(=O)O)CC1)N1CCc2c(C(F)(F)F)nn(Cc3ccccc3)c2C1 [Example 7-11, trans-4-(2-(1-Benzyl-3-(trifluoromethyl)-4,5-dihydro-1H-pyrazolo[3,4-c]pyridin-6(7H)-yl)-2-oxoethyl)cyclohexanecarboxylic acid] | ≤ 100 nM | 
O=C(O)C1CCC(CC(=O)N2CCc3c(C(F)(F)F)nn(-c4ccccc4)c3C2)CC1 (stereo in doubt) [Example 5-21, cis-4-(2-Oxo-2-(1-phenyl-3-(trifluoromethyl)-4,5-dihydro-1H-pyrazolo[3,4-c]pyridin-6(7H)-yl)ethyl)cyclohexanecarboxylic acid] | > 500 nM and ≤ 10000 nM | 
O=C(Cc1ccccc1)N1CCc2c(C(F)(F)F)nn(Cc3ccc(Cl)cc3F)c2C1 [Example 1-3, 1-(1-(4-Chloro-2-fluorobenzyl)-3-(trifluoromethyl)-4,5-dihydro-1H-pyrazolo[3,4-c]pyridin-6(7H)-yl)-2-phenylethanone] | ≤ 100 nM | 
COC(=O)C1CC2CCC(C1)N2CC(=O)N1CCc2c(C(F)(F)F)nn(Cc3ccc(Cl)cc3F)c2C1 (stereo not drawn) [Example 12-4, Methyl 8-(2-(1-(4-chloro-2-fluorobenzyl)-3-(trifluoromethyl)-4,5-dihydro-1H-pyrazolo[3,4-c]pyridin-6(7H)-yl)-2-oxoethyl)-8-azabicyclo[3.2.1]octane-3-carboxylate] |  | ≤ 100
O=C(CC1CN2CCC1CC2)N1CCc2c(C(F)(F)F)nn(Cc3ccc(F)cc3)c2C1 (stereo not drawn) [Example 1-37, 1-(1-(4-Fluorobenzyl)-3-(trifluoromethyl)-4,5-dihydro-1H-pyrazolo[3,4-c]pyridin-6(7H)-yl)-2-(quinuclidin-3-yl)ethanone TFA salt] |  | ≤ 100
